Source: US9732075B2, “Benzimidazole-proline derivatives” (IDORSIA PHARMACEUTICALS LTD, priority 2012, dated 2017)

Tests used:
human orexin-2 receptor = human orexin-2 receptor (Homo sapiens (Human), UniProt O43614); assay: In vitro assay: intracellular calcium measurements (FLIPR), antagonistic activity; format: cell-based; conditions: CHO cells expressing human orexin-2 receptor, orexin-A agonist, geometric mean, read-out: IC50 Ox2
In short: (§1)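 hOX1R/hOX2R CHO cells, fluo-4 AM + 5 mM probenecid, 50 min 37 °C then 30 min RT. Cpd 120 min, then orexin-A 3 nM final; FLIPR peak height vs vehicle. IC50, geometric mean of repeats.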

human orexin-1 receptor = human orexin-1 receptor (Homo sapiens (Human), UniProt O43613); assay: as above; format: cell-based; conditions: CHO cells expressing human orexin-1 receptor, orexin-A agonist, geometric mean, read-out: IC50 Ox1
In short: as §1

Sequence of human orexin-1 receptor (O43613 whole entry): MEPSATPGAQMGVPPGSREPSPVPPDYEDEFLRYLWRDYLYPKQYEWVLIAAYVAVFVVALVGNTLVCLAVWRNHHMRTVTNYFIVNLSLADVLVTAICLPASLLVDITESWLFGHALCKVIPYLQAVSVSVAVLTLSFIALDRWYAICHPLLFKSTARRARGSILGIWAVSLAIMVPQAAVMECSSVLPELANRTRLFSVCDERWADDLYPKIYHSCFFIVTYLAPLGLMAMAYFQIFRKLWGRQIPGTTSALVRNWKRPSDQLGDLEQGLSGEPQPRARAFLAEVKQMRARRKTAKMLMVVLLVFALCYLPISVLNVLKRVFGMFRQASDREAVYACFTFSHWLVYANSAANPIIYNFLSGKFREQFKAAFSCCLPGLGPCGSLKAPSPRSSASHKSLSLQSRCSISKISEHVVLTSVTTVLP
Sequence of human orexin-2 receptor (O43614 whole entry): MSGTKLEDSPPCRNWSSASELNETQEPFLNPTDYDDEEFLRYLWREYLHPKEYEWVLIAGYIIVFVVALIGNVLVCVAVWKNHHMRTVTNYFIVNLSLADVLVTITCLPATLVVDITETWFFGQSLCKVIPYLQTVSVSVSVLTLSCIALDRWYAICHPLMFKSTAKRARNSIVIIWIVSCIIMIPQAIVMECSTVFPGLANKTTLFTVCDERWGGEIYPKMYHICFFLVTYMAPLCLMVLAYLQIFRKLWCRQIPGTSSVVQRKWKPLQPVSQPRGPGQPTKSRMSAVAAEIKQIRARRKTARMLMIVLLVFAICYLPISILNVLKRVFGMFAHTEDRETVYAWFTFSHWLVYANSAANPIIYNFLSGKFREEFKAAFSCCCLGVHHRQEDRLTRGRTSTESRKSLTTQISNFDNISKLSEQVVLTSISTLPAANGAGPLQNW

Structure (SMILES) | IC50 (human orexin-2 receptor) [µM] | IC50 (human orexin-1 receptor) [µM]
COc1ccc(-n2nccn2)c(C(=O)N2C[C@H](OC)C[C@H]2c2nc3ccc(OC)cc3[nH]2)c1 [Ex. 3.20] | 0.04 | 1.86
COc1ccc2nc([C@@H]3C[C@@H](OC)CN3C(=O)c3ccc(C)cc3-n3nccn3)[nH]c2c1 [Ex. 3.21] | 0.033 | 2.51
COc1ccc2nc([C@@H]3C[C@@H](OC)CN3C(=O)c3cc(C)c(C)cc3-n3nccn3)[nH]c2c1 [Ex. 3.22] | 0.009 | 0.576
COc1ccc2nc([C@@H]3C[C@@H](OC)CN3C(=O)c3cc(F)ccc3-n3nccn3)[nH]c2c1 [Ex. 3.23] | 0.067 | 3.89
CO[C@H]1CN(C(=O)c2nc(C)sc2-c2ccccc2)C(C)(c2nc3c(C)c(Cl)ccc3[nH]2)C1 (stereo partly shown) [Ex. 3.24] | 0.012 | 0.005
CO[C@H]1CN(C(=O)c2cc(C)ccc2-n2nccn2)C(C)(c2nc3c(C)c(Cl)ccc3[nH]2)C1 (stereo partly shown) [Ex. 3.25] | 0.007 | 0.005
CO[C@H]1CN(C(=O)c2cc(C)ccc2-n2nccn2)C(C)(c2nc3c(C)cccc3[nH]2)C1 (stereo partly shown) [Ex. 3.26] | 0.066 | 0.05
CO[C@H]1CN(C(=O)c2nc(C)sc2-c2cccc(Cl)c2)C(C)(c2nc3c(C)c(Cl)ccc3[nH]2)C1 (stereo partly shown) [Ex. 3.27] | 0.016 | 0.005
CO[C@H]1CN(C(=O)c2nc(C)sc2-c2cccc(Cl)c2)C(C)(c2nc3c(C)cccc3[nH]2)C1 (stereo partly shown) [Ex. 3.28] | 0.019 | 0.01
CO[C@H]1CN(C(=O)c2nc(C)sc2-c2ccccc2)C(C)(c2nc3c(C)cccc3[nH]2)C1 (stereo partly shown) [Ex. 3.29] | 0.02 | 0.028
CO[C@H]1CN(C(=O)c2cc(C)ccc2-n2nccn2)[C@](C)(c2nc3c(C)c(Cl)ccc3[nH]2)C1 [Ex. 3.30] | 0.002 | 0.002
CO[C@H]1CN(C(=O)c2nc(C)sc2-c2cccc(Cl)c2)[C@](C)(c2nc3c(C)c(Cl)ccc3[nH]2)C1 [Ex. 3.31] | 0.004 | 0.005
CO[C@@H]1C[C@@H](c2nc3ccc(Cl)c(C)c3[nH]2)N(C(=O)c2nc(C)sc2-c2cccc(C)c2)C1 [Ex. 3.32] | 0.005 | 0.0009
CO[C@@H]1C[C@@H](c2nc3ccc(Cl)c(C)c3[nH]2)N(C(=O)c2nc(N(C)C)sc2-c2ccc(C)c(C)c2)C1 [Ex. 3.33] | 0.01 | 0.0008
CO[C@@H]1C[C@@H](c2nc3ccc(Cl)c(C)c3[nH]2)N(C(=O)c2nc(C)sc2-c2ccc(C)c(C)c2)C1 [Ex. 3.34] | 0.008 | 0.0009
CO[C@@H]1C[C@@H](c2nc3ccc(Cl)c(C)c3[nH]2)N(C(=O)c2nc(C)sc2-c2ccc(Cl)cc2)C1 [Ex. 3.35] | 0.004 | 0.003
CO[C@@H]1C[C@@H](c2nc3ccc(Cl)c(C)c3[nH]2)N(C(=O)c2nc(C)sc2-c2ccc(C)cc2)C1 [Ex. 3.36] | 0.009 | 0.005
COc1ccc(-c2sc(C)nc2C(=O)N2C[C@H](OC)C[C@H]2c2nc3ccc(Cl)c(C)c3[nH]2)cc1 [Ex. 3.37] | 0.008 | 0.008
CO[C@@H]1C[C@@H](c2nc3ccc(Cl)c(C)c3[nH]2)N(C(=O)c2ccccc2-c2ccc(C)c(C)c2)C1 [Ex. 3.38] | 0.013 | 0.006
CO[C@@H]1C[C@@H](c2nc3ccc(Cl)c(C)c3[nH]2)N(C(=O)c2ccccc2-c2ccccc2)C1 [Ex. 3.39] | 0.057 | 0.074
CO[C@@H]1C[C@@H](c2nc3ccc(Cl)c(C)c3[nH]2)N(C(=O)c2ccccc2-c2ccc(F)c(C)c2)C1 [Ex. 3.40] | 0.007 | 0.008
CO[C@@H]1C[C@@H](c2nc3ccc(Cl)c(C)c3[nH]2)N(C(=O)c2nc(N(C)C)sc2-c2cccc(Cl)c2)C1 [Ex. 3.41] | 0.007 | 0.0007
CO[C@H]1CN(C(=O)c2c(F)cccc2-n2nccn2)C(C)(c2nc3c(C)c(Cl)ccc3[nH]2)C1 (stereo partly shown) [Ex. 3.42] | 0.395 | 0.193
CO[C@H]1CN(C(=O)c2cc(F)ccc2-n2nccn2)C(C)(c2nc3c(C)c(Cl)ccc3[nH]2)C1 (stereo partly shown) [Ex. 3.43] | 0.013 | 0.01
CO[C@H]1CN(C(=O)c2cc(Cl)ccc2-n2nccn2)C(C)(c2nc3c(C)c(Cl)ccc3[nH]2)C1 (stereo partly shown) [Ex. 3.44] | 0.006 | 0.003

Structure (SMILES) | IC50 (human orexin-2 receptor) [µM] | IC50 (human orexin-1 receptor) [µM]
CO[C@H]1CN(C(=O)c2ccccc2-n2nccn2)C(C)(c2nc3c(C)c(Cl)ccc3[nH]2)C1 (stereo partly shown) [Ex. 3.45] | 0.019 | 0.016
COc1ccc(-n2nccn2)c(C(=O)N2C[C@H](OC)CC2(C)c2nc3c(C)c(Cl)ccc3[nH]2)c1F (stereo partly shown) [Ex. 3.46] | 0.288 | 0.223
CO[C@H]1CN(C(=O)c2c(-n3nccn3)ccc(C)c2F)C(C)(c2nc3c(C)c(Cl)ccc3[nH]2)C1 (stereo partly shown) [Ex. 3.47] | 0.471 | 0.225
CO[C@H]1CN(C(=O)c2ccc(C)cc2-n2nccn2)C(C)(c2nc3c(C)c(Cl)ccc3[nH]2)C1 (stereo partly shown) [Ex. 3.49] | 0.018 | 0.013
CO[C@H]1CN(C(=O)c2cc(C(F)(F)F)ccc2-n2nccn2)C(C)(c2nc3c(C)c(Cl)ccc3[nH]2)C1 (stereo partly shown) [Ex. 3.50] | 0.252 | 0.232
CO[C@H]1CN(C(=O)c2cc(OC(F)(F)F)ccc2-n2nccn2)C(C)(c2nc3c(C)c(Cl)ccc3[nH]2)C1 (stereo partly shown) [Ex. 3.51] | 0.044 | 0.094
COc1cc(C(=O)N2C[C@H](OC)CC2(C)c2nc3c(C)c(Cl)ccc3[nH]2)c(-n2nccn2)cc1OC (stereo partly shown) [Ex. 3.52] | 0.027 | 0.028
CO[C@H]1CN(C(=O)c2cc(C)ccc2-n2cccn2)C(C)(c2nc3c(C)c(Cl)ccc3[nH]2)C1 (stereo partly shown) [Ex. 3.53] | 0.02 | 0.01
CO[C@H]1CN(C(=O)c2ccccc2-n2cccn2)C(C)(c2nc3c(C)c(Cl)ccc3[nH]2)C1 (stereo partly shown) [Ex. 3.54] | 0.044 | 0.052
CO[C@H]1CN(C(=O)c2nc(C)ccc2-n2cccn2)C(C)(c2nc3c(C)c(Cl)ccc3[nH]2)C1 (stereo partly shown) [Ex. 3.55] | 0.045 | 0.018
CO[C@H]1CN(C(=O)c2nc(C)ccc2-n2nccn2)C(C)(c2nc3c(C)c(Cl)ccc3[nH]2)C1 (stereo partly shown) [Ex. 3.56] | 0.037 | 0.018
Cc1ccc(-n2nccn2)c(C(=O)N2CC[C@H](C)[C@H]2c2nc3cc(C)ccc3[nH]2)c1 [Ex. 4.2] | 0.669 | 0.132
Cc1ccc2[nH]c([C@@H]3[C@@H](C)CCN3C(=O)c3nc(C)sc3-c3cccc(Cl)c3)nc2c1 [Ex. 4.3] | 1.35 | 0.008
Cc1nc(C(=O)N2CC[C@H](C)[C@H]2c2nc3cccc(C)c3[nH]2)c(-c2ccccc2)s1 [Ex. 4.4] | 1.17 | 0.011
Cc1ccc2[nH]c([C@@H]3[C@@H](C)CCN3C(=O)c3nc(C)sc3-c3ccccc3)nc2c1 [Ex. 4.5] | 3.19 | 0.029
Cc1nc(C(=O)N2CC[C@H](C)[C@H]2c2nc3ccccc3[nH]2)c(-c2cccc(Cl)c2)s1 [Ex. 4.6] | 3.89 | 0.029
Cc1nc(C(=O)N2CC[C@H](C)[C@H]2c2nc3cccc(C)c3[nH]2)c(-c2cccc(Cl)c2)s1 [Ex. 4.7] | 0.603 | 0.002
Cc1nc(C(=O)N2CC[C@H](C)[C@H]2c2nc3cc(C#N)ccc3[nH]2)c(-c2cccc(Cl)c2)s1 [Ex. 4.8] | 9.93 | 0.068
Cc1nc(C(=O)N2CC[C@H](C)[C@H]2c2nc3cc(C(F)(F)F)ccc3[nH]2)c(-c2cccc(Cl)c2)s1 [Ex. 4.9] | 2.78 | 0.002
Cc1nc(C(=O)N2CC[C@H](C)[C@H]2c2nc3cc(C)c(C)cc3[nH]2)c(-c2cccc(Cl)c2)s1 [Ex. 4.10] | 0.833 | 0.002
Cc1nc(C(=O)N2CC[C@H](C)[C@H]2c2nc3cc(Cl)ccc3[nH]2)c(-c2cccc(Cl)c2)s1 [Ex. 4.11] | 4.06 | 0.01
Cc1nc(C(=O)N2CC[C@H](C)[C@H]2c2nc3cc(F)c(F)cc3[nH]2)c(-c2cccc(Cl)c2)s1 [Ex. 4.12] | 4.87 | 0.023
COC(=O)c1cccc2nc([C@@H]3[C@@H](C)CCN3C(=O)c3nc(C)sc3-c3cccc(Cl)c3)[nH]c12 [Ex. 4.13] | 4.91 | 0.026
COc1cccc2[nH]c([C@@H]3[C@@H](C)CCN3C(=O)c3nc(C)sc3-c3cccc(Cl)c3)nc12 [Ex. 4.14] | 4.03 | 0.015
Cc1nc(C(=O)N2CC[C@H](C)[C@H]2c2nc3cc(Cl)c(C)cc3[nH]2)c(-c2cccc(Cl)c2)s1 [Ex. 4.15] | 0.67 | 0.002
